Measurements published in US20260001888A1, “PYRAZOLOPYRIMIDINE PDE9 INHIBITORS” (Merck Sharp & Dohme LLC, priority 2018, published 2026).

The molecules below were run against Human PDE9 (PDE9A2) (Homo sapiens (Human), UniProt O76083) (assay: PDE9 IMAP fluorescence polarization (FP) inhibition assay). Conditions: apparent inhibition constant; human PDE9A2, FAM-cGMP substrate 50 nM, room temperature.
Chain of Human PDE9 (PDE9A2) (O76083 other isoform, or with tags, fused parts or gaps): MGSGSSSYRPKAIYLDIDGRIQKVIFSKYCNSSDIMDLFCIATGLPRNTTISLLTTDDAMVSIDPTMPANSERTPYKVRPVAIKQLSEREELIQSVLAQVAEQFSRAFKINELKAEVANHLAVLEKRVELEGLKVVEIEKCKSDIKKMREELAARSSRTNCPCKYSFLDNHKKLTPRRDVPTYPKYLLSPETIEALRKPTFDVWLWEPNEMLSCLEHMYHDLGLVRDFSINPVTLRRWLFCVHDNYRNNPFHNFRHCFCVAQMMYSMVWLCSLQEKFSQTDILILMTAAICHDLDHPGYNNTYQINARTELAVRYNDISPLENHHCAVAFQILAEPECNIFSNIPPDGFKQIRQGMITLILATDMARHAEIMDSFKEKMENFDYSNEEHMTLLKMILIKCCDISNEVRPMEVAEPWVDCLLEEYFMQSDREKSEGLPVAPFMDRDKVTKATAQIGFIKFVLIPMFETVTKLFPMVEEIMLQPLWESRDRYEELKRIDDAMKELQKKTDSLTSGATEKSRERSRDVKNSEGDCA
Format: biochemical
Method in brief: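 N-terminal GST-tagged full-length PDE9A2 membrane prep (0.5 ng/ml final) preincubated 30 min with compound at room temperature, then 50 nM FAM-cGMP added for 60 min; IMAP binding reagent stops reaction, FP read after 1 h. Controls: known PDE9 inhibitor (100%), 1% DMSO (0%). KI from four-parameter fit.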
For `CCC(c1ncc(F)cn1)N(C)c1nc2c(c(C#N)nn2C(C)c2ccc(C3CC3)nc2)c(=O)[nH]1` (single isomer, unassigned) [Example 64, 1-[1-(6-cyclopropyl-3-pyridyl)ethyl]-6-[1-(5-fluoropyrimidin-2-yl)propyl-methyl-amino]-4-oxo-5H-pyrazolo[3,4-d]pyrimidine-3-carbonitrile], the Ki was 11.9 nM. In the case of `CCC(c1ncc(F)cn1)N(C)c1nc2c(c(C#N)nn2C(C)c2ccc(C3CC3)nc2)c(=O)[nH]1` (single isomer, unassigned) [Example 65, 1-[1-(6-cyclopropyl-3-pyridyl)ethyl]-6-[1-(5-fluoropyrimidin-2-yl)propyl-methyl-amino]-4-oxo-5H-pyrazolo[3,4-d]pyrimidine-3-carbonitrile], the Ki is reported as 0.03 nM. `CCC(c1ncc(F)cn1)N(C)c1nc2c(c(C#N)nn2C(C)c2ccc(C3CC3)nc2)c(=O)[nH]1` (single isomer, unassigned) [Example 66, 1-[1-(6-cyclopropyl-3-pyridyl)ethyl]-6-[1-(5-fluoropyrimidin-2-yl)propyl-methyl-amino]-4-oxo-5H-pyrazolo[3,4-d]pyrimidine-3-carbonitrile] gave a Ki of 0.6 nM. Work on `CCC(c1ncc(F)cn1)N(C)c1nc2c(c(C#N)nn2C(C)c2ccc(C3CC3)cc2)c(=O)[nH]1` (single isomer, unassigned) [Example 67, 1-[1-(4-cyclopropylphenyl)ethyl]-6-[1-(5-fluoropyrimidin-2-yl)propyl-methyl-amino]-4-oxo-5H-pyrazolo[3,4-d]pyrimidine-3-carbonitrile] yielded a Ki of 0.71 nM. In the case of `CCC(c1ncc(F)cn1)N(C)c1nc2c(c(C#N)nn2C(C)c2ccc(C3CC3)cc2)c(=O)[nH]1` (single isomer, unassigned) [Example 68, 1-[1-(4-cyclopropylphenyl)ethyl]-6-[1-(5-fluoropyrimidin-2-yl)propyl-methyl-amino]-4-oxo-5H-pyrazolo[3,4-d]pyrimidine-3-carbonitrile], the Ki is reported as 0.73 nM. Molecule `CCC(c1ncc(F)cn1)N(C)c1nc2c(c(C#N)nn2C(C)c2ccc(C3CC3)cc2)c(=O)[nH]1` (single isomer, unassigned) [Example 69, 1-[1-(4-cyclopropylphenyl)ethyl]-6-[1-(5-fluoropyrimidin-2-yl)propyl-methyl-amino]-4-oxo-5H-pyrazolo[3,4-d]pyrimidine-3-carbonitrile] has a Ki of 14.9 nM. In the case of `CCC(c1ncc(F)cn1)N(C)c1nc2c(c(C#N)nn2C(C)c2ccc(C3CC3)cc2)c(=O)[nH]1` (single isomer, unassigned) [Example 70, 1-[1-(4-cyclopropylphenyl)ethyl]-6-[1-(5-fluoropyrimidin-2-yl)propyl-methyl-amino]-4-oxo-5H-pyrazolo[3,4-d]pyrimidine-3-carbonitrile], the Ki is reported as 0.02 nM. Molecule `CCC(Nc1nc2c(c(C#N)nn2C(C)c2ccc(C(F)(F)F)nc2)c(=O)[nH]1)c1ncccn1` (single isomer, unassigned) [Example 71, 4-Oxo-6-((1-(pyrimidin-2-yl)propyl)amino)-1-(1-(6-(trifluoromethyl)pyridin-3-yl)ethyl)-4,5-dihydro-1H-pyrazolo[3,4-d]pyrimidine-3-carbonitrile] has a Ki of 11.9 nM. With `CCC(Nc1nc2c(c(C#N)nn2C(C)c2ccc(C(F)(F)F)nc2)c(=O)[nH]1)c1ncccn1` (single isomer, unassigned) [Example 72, 4-Oxo-6-((1-(pyrimidin-2-yl)propyl)amino)-1-(1-(6-(trifluoromethyl)pyridin-3-yl)ethyl)-4,5-dihydro-1H-pyrazolo[3,4-d]pyrimidine-3-carbonitrile] the Ki was 21.9 nM. For `CCC(Nc1nc2c(c(C#N)nn2C(C)c2ccc(C(F)(F)F)nc2)c(=O)[nH]1)c1ncccn1` (single isomer, unassigned) [Example 73, 4-Oxo-6-((1-(pyrimidin-2-yl)propyl)amino)-1-(1-(6-(trifluoromethyl)pyridin-3-yl)ethyl)-4,5-dihydro-1H-pyrazolo[3,4-d]pyrimidine-3-carbonitrile], the Ki was 0.25 nM. Molecule `CCC(Nc1nc2c(c(C#N)nn2C(C)c2ccc(C(F)(F)F)nc2)c(=O)[nH]1)c1ncccn1` (single isomer, unassigned) [Example 74, 4-Oxo-6-((1-(pyrimidin-2-yl)propyl)amino)-1-(1-(6-(trifluoromethyl)pyridin-3-yl)ethyl)-4,5-dihydro-1H-pyrazolo[3,4-d]pyrimidine-3-carbonitrile] has a Ki of 11.4 nM. `CCC(c1ncc(F)cn1)N(C)c1nc2c(c(C#N)nn2C(C)c2ccc(C(F)(F)F)nc2)c(=O)[nH]1` (single isomer, unassigned) [Example 75, 6-((1-(5-fluoropyrimidin-2-yl)propyl)(methyl)amino)-4-oxo-1-(1-(6-(trifluoromethyl)pyridin-3-yl)ethyl)-4,5-dihydro-1H-pyrazolo[3,4-d]pyrimidine-3-carbonitrile] showed a Ki of 3.31 nM. In the case of `CCC(c1ncc(F)cn1)N(C)c1nc2c(c(C#N)nn2C(C)c2ccc(C(F)(F)F)nc2)c(=O)[nH]1` (single isomer, unassigned) [Example 76, 6-((1-(5-fluoropyrimidin-2-yl)propyl)(methyl)amino)-4-oxo-1-(1-(6-(trifluoromethyl)pyridin-3-yl)ethyl)-4,5-dihydro-1H-pyrazolo[3,4-d]pyrimidine-3-carbonitrile], the Ki is reported as 55.1 nM. `CCC(c1ncc(F)cn1)N(C)c1nc2c(c(C#N)nn2C(C)c2ccc(C(F)(F)F)nc2)c(=O)[nH]1` (single isomer, unassigned) [Example 77, 6-((1-(5-fluoropyrimidin-2-yl)propyl)(methyl)amino)-4-oxo-1-(1-(6-(trifluoromethyl)pyridin-3-yl)ethyl)-4,5-dihydro-1H-pyrazolo[3,4-d]pyrimidine-3-carbonitrile] was tested, and the Ki was 0.27 nM. `CCC(c1ncc(F)cn1)N(C)c1nc2c(c(C#N)nn2C(C)c2ccc(C(F)(F)F)nc2)c(=O)[nH]1` (single isomer, unassigned) [Example 78, 6-((1-(5-fluoropyrimidin-2-yl)propyl)(methyl)amino)-4-oxo-1-(1-(6-(trifluoromethyl)pyridin-3-yl)ethyl)-4,5-dihydro-1H-pyrazolo[3,4-d]pyrimidine-3-carbonitrile] gave a Ki of 34.2 nM. `CC(c1ccc(C(F)(F)F)nc1)n1nc(C#N)c2c(=O)[nH]c(CCc3ncccn3)nc21` (single isomer, unassigned) [Example 79, 4-oxo-6-(2-(pyrimidin-2-yl)ethyl)-1-(1-(6-(trifluoromethyl)pyridin-3-yl)ethyl)-4,5-dihydro-1H-pyrazolo[3,4-d]pyrimidine-3-carbonitrile] showed a Ki of 3.96 nM. Work on `CC(c1ccc(C(F)(F)F)nc1)n1nc(C#N)c2c(=O)[nH]c(CCc3ncccn3)nc21` (single isomer, unassigned) [Example 80, 4-oxo-6-(2-(pyrimidin-2-yl)ethyl)-1-(1-(6-(trifluoromethyl)pyridin-3-yl)ethyl)-4,5-dihydro-1H-pyrazolo[3,4-d]pyrimidine-3-carbonitrile] yielded a Ki of 120 nM. With `CC(c1ccc(C(F)(F)F)nc1)n1nc(C#N)c2c(=O)[nH]c(CCc3ncc(C4CC4)cn3)nc21` (single isomer, unassigned) [Example 81, 6-(2-(5-cyclopropylpyrimidin-2-yl)ethyl)-4-oxo-1-(1-(6-(trifluoromethyl)pyridin-3-yl)ethyl)-4,5-dihydro-1H-pyrazolo[3,4-d]pyrimidine-3-carbonitrile] the Ki was 0.5 nM. `CC(c1ccc(C(F)(F)F)nc1)n1nc(C#N)c2c(=O)[nH]c(CCc3ncc(C4CC4)cn3)nc21` (single isomer, unassigned) [Example 82, 6-(2-(5-cyclopropylpyrimidin-2-yl)ethyl)-4-oxo-1-(1-(6-(trifluoromethyl)pyridin-3-yl)ethyl)-4,5-dihydro-1H-pyrazolo[3,4-d]pyrimidine-3-carbonitrile] showed a Ki of 16.2 nM. For `CC(Cc1nc2c(c(C#N)nn2C(C)c2ccc(C(F)(F)F)nc2)c(=O)[nH]1)c1ncccn1` (single isomer, unassigned) [Example 83, 4-oxo-6-(2-(pyrimidin-2-yl)propyl)-1-(1-(6-(trifluoromethyl)pyridin-3-yl)ethyl)-4,5-dihydro-1H-pyrazolo[3,4-d]pyrimidine-3-carbonitrile], the Ki was 60.7 nM. With `CC(Cc1nc2c(c(C#N)nn2C(C)c2ccc(C(F)(F)F)nc2)c(=O)[nH]1)c1ncccn1` (single isomer, unassigned) [Example 84, 4-oxo-6-(2-(pyrimidin-2-yl)propyl)-1-(1-(6-(trifluoromethyl)pyridin-3-yl)ethyl)-4,5-dihydro-1H-pyrazolo[3,4-d]pyrimidine-3-carbonitrile] the Ki was 111 nM. `CC(Cc1nc2c(c(C#N)nn2C(C)c2ccc(C(F)(F)F)nc2)c(=O)[nH]1)c1ncccn1` (single isomer, unassigned) [Example 85, 4-oxo-6-(2-(pyrimidin-2-yl)propyl)-1-(1-(6-(trifluoromethyl)pyridin-3-yl)ethyl)-4,5-dihydro-1H-pyrazolo[3,4-d]pyrimidine-3-carbonitrile] showed a Ki of 1.17 nM. `CC(Cc1nc2c(c(C#N)nn2C(C)c2ccc(C(F)(F)F)nc2)c(=O)[nH]1)c1ncccn1` (single isomer, unassigned) [Example 86, 4-oxo-6-(2-(pyrimidin-2-yl)propyl)-1-(1-(6-(trifluoromethyl)pyridin-3-yl)ethyl)-4,5-dihydro-1H-pyrazolo[3,4-d]pyrimidine-3-carbonitrile] was tested, and the Ki was 33.4 nM. In the case of `CCC(Cc1nc2c(c(C#N)nn2C(C)c2ccc(C(F)(F)F)nc2)c(=O)[nH]1)c1ncccn1` (single isomer, unassigned) [Example 87, 4-oxo-6-(2-(pyrimidin-2-yl)butyl)-1-(1-(6-(trifluoromethyl)pyridin-3-yl)ethyl)-4,5-dihydro-1H-pyrazolo[3,4-d]pyrimidine-3-carbonitrile], the Ki is reported as 93.4 nM. Work on `CCC(Cc1nc2c(c(C#N)nn2C(C)c2ccc(C(F)(F)F)nc2)c(=O)[nH]1)c1ncccn1` (single isomer, unassigned) [Example 88, 4-oxo-6-(2-(pyrimidin-2-yl)butyl)-1-(1-(6-(trifluoromethyl)pyridin-3-yl)ethyl)-4,5-dihydro-1H-pyrazolo[3,4-d]pyrimidine-3-carbonitrile] yielded a Ki of 108 nM.
